Results on nine compounds are retold here after patent publication US6748900B2, “Methods for growing and imprinting fish using an odorant” (MariCal, Inc., priority 2001, dated 2004).

“Also recorded” adds a separate entry of the source.

For assay [1], the system named is olfactory epithelium of freshwater adapted juvenile salmon. Nature of the assay: Extracellular electrical potentials (EEG) from olfactory nerve after bolus stimuli to the olfactory epithelium in distilled water. It counts as in vivo, Atlantic salmon (Salmo salar). The note with it: for concentration dependence of olfactory nerve impulse: exposure of fish olfactory epithelium. From the text: The present invention provides methods for identifying and/or quantifying the effects of PVCR modulators on olfactory receptor sensing and visa versa. The present invention also includes methods for determining whether a compound is an odorant. When fish are exposed to an odorant (e.g., the odorant binds to olfactory lamellae), the odorant binds to the olfactory epithelium of the fish, which leads to the generation of a nerve impulse. The electric potential of the impulse can be measured using methods known in the art, or those later developed. One example of a method that can be used to measure electric potential is an electroencephalogram, commonly referred to as an EEG. Example 3 describes in detail how to measure nerve impulse of fish, and in particular, as it relates to modulation of the PVCR in the olfactory apparatus of the fish. Briefly, the fish are anaesthetized and placed in V-clamp apparatus where its gills were irrigated continuously with aerated seawater and its nasal lamellae bathed continuously by a stream of distilled water via a tube held in position in the inhalant olfactory opening. The olfactory nerves of the fish were exposed by removal of overlying bony structures. Odorants to be tested can be delivered as boluses to the olfactory epithelium via a 3 way valve where 1 cc of water containing the stimulus was rapidly injected into the tube containing a continuously stream of distilled water. […] The results can be analyzed by computer using compatible software.
(§1) Physiol. A 127:157-166 (1975), and Hubbard, PC, et al., Olfactory sensitivity to changes in environmental Ca2+ in the marine teleost Sparus Aurata, J. Exp. Biol. 203:3821-3829 (2000). After anaesthetizing the fish, it was placed in V-clamp apparatus where its gills were irrigated continuously with aerated seawater and its nasal lamellae bathed continuously by a stream of distilled water via a tube held in position in the inhalant olfactory opening. The olfactory nerves of the fish were exposed by removal of overlying bony structures. Stimuli were delivered as boluses to the olfactory epithelium via a 3 way valve where 1 cc of water containing the stimulus was rapidly injected into the tube containing a continuously stream of distilled water. […] Using this experimental approach, stable and reproducible recordings could be obtained for up to 6 hr after the initial surgery on the fish.
Similarly, exposure of olfactory epithelium to the PVCR agonist Gd^3+ produces responses of a similar magnitude to those evoked by Ca^2+ in a concentration range of 1-10 micromolar. […] These dose response curves (EC50 Gd^+3≦Ca^2+<Mg^2+) are similar to those obtained for PVCR modulated responses in other fish epithelium (flounder urinary bladder NaCl-mediated water transport-see SKCaR application).

Assay [2] relates to nasal lamellae of Atlantic salmon. Kind of assay: Olfactory response to stimuli alone or in combination with 500 mM NaCl (FIGS. 12B-12D). It counts as in vivo, Atlantic salmon (Salmo salar). Here is the method: Stimuli were delivered to the olfactory epithelium via a glass capillary tube placed in the inhalant olfactory opening. This tube was connected to a gravity fed tubing system allowing for switching from a background perfusion (charcoal filtered freshwater) to an experimental stimulus while maintaining a flow rate of 6-8 ml/min. Verification of the location of the stimulus delivery tubes and electrode was made by observing responses to a ‘search stimulus’ of […].
Stimuli consisted of CaR agonists (CaCl2, MgCl2, GdCl3, SrCl2 and NaCl (Sigma-Aldrich), control freshwater stimulus (charcoal filtered tap water) and control seawater stimuli (ASW, Ca-free ASW, Divalent free ASW). Stimuli were presented alone or in combination with 500 mM NaCl. Ringers and artificial seawater recipes were obtained from the Biological Bulletin Compendia (all concentrations are in mM) ASW (nAcl 423, KCl 9.0, CaCl2 22.94, MgSO4 25.50, NaHCO3 2.14, pH 8.0); Ca-free ASW (NaCl 436.71, KCl 9.0, MgCl2 22.94, MgSO4, 25.5, NaHCO3 2.14, pH 8.0); Divalent free ASW (NaCl 461.85, KCl 10.73, NAHCO3 2.14, Na2SO4 7.04, pH 8.0); FW Teleost Ringer's (NaCl 111.0, KCl 5.37, Cacl2 1.0, MgSO4, 0.6, HEPES 5.0, pH 7.3).

The test system of the next assay is olfactory epithelium. Nature of the assay: Olfactory nerve recording: PVCR agonists added to a repellant (finger rinse) or an attractant (L-alanine). The note with it: for effect on response of olfactory epithelium to mammalian finger rinse: FIG. 13. It counts as in vivo, Atlantic salmon (Salmo salar).
Excerpt: as §1
The ablation of responses to both the PVCR agonists as shown in FIG. 12A as well as mammalian finger rinse indicate that there are some complex interactions between PVCR proteins and other odorant receptors. It is also extremely unlikely that inclusion of PVCR agonists removed all the stimulatory components of mammalian finger rinse from solution such that they were not able to stimulate the epithelium.

The test system of assay [3] is shark kidney calcium receptor (SKCaR). Nature of the assay: FURA-2 ratio imaging fluorescence of HEK cells stably expressing SKCaR. It counts as cell-based, dogfish (Squalus acanthias). The conditions noted are these: 10 mM amino acid; for effect on SKCaR's response to a given Ca^2+ concentration: FIG. 16. Here is the method:
Full length recombinant dogfish (Squalus acanthias) shark kidney calcium receptor (SKCaR) was expressed in human embryonic kidney cells using methods described herein. The ability of SKCaR to respond to individual amino acids as well as various mixtures was quantified using FURA-2 ratio imaging fluorescence.
Baseline extracellular Ca^2+ concentration was 0.5 mM. Aliquots of Ca^2+ were added to produce final extracellular concentrations of 2.5 mM, 5 mM, 7.5 mM, 10 mM and 20 mM Ca^2+ with changes in the fluorescence recorded. Note that increases in cell fluorescence were greater in the presence of 10 mM Phe for extracellular Ca^2+ concentrations less than 10 mM.

Where [4] appears, read: 1 mM agonist with 500 mM NaCl, FIG. 12D.
Setting [5] is: 500 micromolar stimulus, FIG. 11.

`[Ca+2]` [Ca^2+, calcium]: the “olfactory nerve response (EEG activity)” value in assay [1] (1 mM stimulus, FIG. 11) is “responses in EEG activity”; in assay [1] (1 mM stimulus, FIG. 11, listed as calcium) it was “existence of an olfactory recording”. In addition, the EC50 in assay [1] (FIG. 12A, responses normalized to 10 mM Ca^2+, multiple fish, read-out: half maximal excitatory response (EC50)) fell in the range of 1 to 10 µM. Moreover, in assay [1], the “concentration dependence of olfactory nerve impulse” value (“concentration dependence” for short) is listed as “concentration-dependent olfactory nerve impulse”. In assay [2] (setting [4]), the “effect on olfactory response to 500 mM NaCl” value (shortened to “effect … to 500 mM NaCl”) was “significantly reduce the olfactory response”. Further, in assay [2] (10 mM in 500 mM NaCl, FIG. 12C), the “olfactory response in a 500 mM NaCl solution” value was “identical to that produced by artificial seawater (ASW) exposure”. Besides, in assay [2] (FIG. 12C, various concentrations in 500 mM NaCl), the “effect on olfactory response produced by 500 mM NaCl” value is given as “reduces the olfactory response”. For the same compound, in the assay with olfactory epithelium (5 mM added, FIG. 14 recording #2), the “effect on olfactory nerve response to 500 micromolar L-alanine” value is listed as “complete loss of the corresponding response”. Besides, the “effect on response of olfactory epithelium to mammalian finger rinse” value in the assay with olfactory epithelium (5 mM agonist included) is “reversibly ablated the response”. Besides, the “response to subsequent identical L-alanine stimulus without the agonist” value in the assay with olfactory epithelium (after 5 mM, FIG. 14 recording #3) was “return of the signal”.

For the compound `[Gd+3]` [Gd^3+, gadolinium], the olfactory nerve response entry was “existence of an olfactory recording” in assay [1] (50 micromolar stimulus, FIG. 11, listed as Gadolinium) and “obtained a response” in assay [1] (50 micromolar stimulus, FIG. 11, listed as gadolinium). In assay [1] (FIG. 12A), the “concentration range producing responses of a similar magnitude to those evoked by Ca^2+” value is 1 to 10 µM. Besides, the “concentration dependence” value in assay [1] is “concentration-dependent olfactory nerve impulse”. The “effect … to 500 mM NaCl” value in assay [2] (50 micromolar agonist with 500 mM NaCl, FIG. 12D) is recorded as “significantly reduce the olfactory response”. For the same compound, the “effect on olfactory nerve response to 500 micromolar L-alanine” value in the assay with olfactory epithelium (50 micromolar added, FIG. 14 recording #7) is reported as “complete loss of the corresponding response”. Moreover, the “effect on response of olfactory epithelium to mammalian finger rinse” value in the assay on olfactory epithelium (50 micromolar agonist included) is “reversibly ablated the response”; in the assay on olfactory epithelium (50 micromolar agonist included, listed as gadolinium), “reversibly altered”. For the same compound, the “response to subsequent identical L-alanine stimulus without the agonist” value in the assay on olfactory epithelium (after 50 micromolar, FIG. 14 recording #8 vs #6) is “return of the signal; also recorded: decreased as compared to control”.

With `CC[C@H](C)[C@H](N)C(=O)O` [Ile, L-Isoleucine], the “effect on SKCaR's response to a given Ca^2+ concentration” value in assay [3] is on record as “increase SKCaR's response”.

In the case of `C[C@H](N)C(=O)O` [L-alanine], in assay [1] (setting [5]), the “duration of olfactory nerve response” value is on record as “approximately 2 seconds”; the olfactory nerve response entry was “large increases in both the firing frequency and amplitude; also recorded: existence of an olfactory recording”.

In the case of `[Mg+2]` [Mg^2+, magnesium], in assay [1] (FIG. 12A), the “concentration at which olfactory epithelium responses first occur” value is 10 to 100 µM. In assay [1], the “concentration dependence” value is recorded as “concentration-dependent olfactory nerve impulse”. Also, the “effect … to 500 mM NaCl” value in assay [2] (setting [4]) is listed as “significantly reduce the olfactory response”.

On to `[Cl-].[Na+]` [NaCl, sodium chloride], for which, in assay [1] (250 mM stimulus, FIG. 11), the “olfactory nerve response (EEG activity)” value is “responses in EEG activity; also recorded: existence of an olfactory recording”. The “concentration until which olfactory epithelium is unresponsive” value in assay [1] (FIG. 12A) was determined as 250 millimolar. Moreover, the “olfactory response to irrigation of the nasal lamellae” value in assay [2] (500 mM alone, FIG. 12D) is “large response”. The “response to subsequent L-Alanine alone” value in the assay with olfactory epithelium (after 250 mM, FIG. 14 recordings #5 and #10) is “enhanced response to L-Alanine alone”.

`N[C@@H](Cc1ccccc1)C(=O)O` [Phe, L-Phenylalanine]: the “effect on SKCaR's response to a given Ca^2+ concentration” value in assay [3] was “increase SKCaR's response”. In assay [3] (extracellular Ca^2+ less than 10 mM, FIG. 15), the “increases in cell fluorescence on addition of extracellular Ca^2+” value is reported as “greater”.

With `[Sr+2]` [Sr2+, strontium], in assay [2] (setting [4]), the “effect … to 500 mM NaCl” value is on record as “significantly reduce the olfactory response”.

As to neomycin, in assay [1], the “concentration dependence” value is listed as “concentration-dependent olfactory nerve impulse”.

In general, EC50 refers to the concentration giving half of the maximal effect.
